Data: patent publication US6511997B1, “Aminopyrazole derivatives” (Teikoku Hormone Mfg. Co., Ltd., priority 1998, dated 2003)

Row | Structure (SMILES) | melting point
1 | Cc1ccc(S(=O)(=O)Nc2n[nH]c(-c3ccc(F)cc3)c2-c2ccncc2)cc1 [Example 140, 5-(4-Fluorophenyl)-4-(4-pyridyl)-3-(p-toluenesulfonylamino)pyrazole] | 221.2 to 221.5 °C
2 | Cc1ccccc1CC(=O)Nc1c(-c2ccncc2)c(-c2ccc(F)cc2)nn1C [Example 67, 3-(4-Fluorophenyl)-1-methyl-5-(2-methylphenylacetylamino)-4-(4-pyridyl)pyrazole] | 197.6 to 200.5 °C
3 | O=C(Cc1ccc(Cl)cc1)Nc1n[nH]c(-c2ccc(F)cc2)c1-c1ccncc1 [Example 6, 3-(4-Chlorophenylacetylamino)-5-(4-fluorophenyl)-4-(4-pyridyl)pyrazole] | 273.2 to 277.3 °C
4 | O=C(Cc1ccncc1)Nc1n[nH]c(-c2ccc(F)cc2)c1-c1ccncc1 [Example 29, 5-(4-Fluorophenyl)-4-(4-pyridyl)-3-(4-pyridylacetylamino)pyrazole] | 248.3 to 251.8 °C (dec.)
5 | Cc1ccc(CC(=O)Nc2n[nH]c(-c3ccc(F)cc3)c2-c2ccncc2)cc1 [Example 7, 5-(4-Fluorophenyl)-3-(4-methylphenylacetylamino)-4-(4-pyridyl)pyrazole] | 262.8 to 264.7 °C
6 | O=C(Cc1ccccc1Cl)Nc1c(-c2ccncc2)c(-c2ccc(F)cc2)nn1-c1ccccc1 [Example 107, 5-(2-chlorophenylacetylamino)-3-(4-fluorophenyl)-1-phenyl-4-(4-pyridyl)pyrazole] | 265.2 to 268 °C
7 | O=C(Cc1ccc(F)cc1)Nc1n[nH]c(-c2ccc(F)cc2)c1-c1ccncc1 [Example 26, 5-(4-Fluorophenyl)-3-(4-fluorophenylacetylamino)-4-(4-pyridyl)pyrazole] | 259.4 to 261.2 °C
8 | Cn1nc(NC(=O)Cc2ccccc2)c(-c2ccncc2)c1-c1ccc(F)cc1 [Example 116, 5-(4-fluorophenyl)-1-methyl-3-phenylacetylamino-4-(4-pyridyl)pyrazole] | 157.6 to 160.1 °C
9 | O=C(Nc1n[nH]c(-c2ccc(F)cc2)c1-c1ccncc1)c1ccccc1 [Example 13, 3-Benzoylamino-5-(4-fluorophenyl)-4-(4-pyridyl)pyrazole] | 270.5 to 276.1 °C
10 | Cn1nc(-c2ccc(F)cc2)c(-c2ccncc2)c1NC(=O)Cc1ccsc1 [Example 80, 3-(4-Fluorophenyl)-1-methyl-4-(4-pyridyl)-5-(3-thienylacetylamino)pyrazole] | 151.9 to 154.6 °C
11 | COc1ccccc1CC(=O)Nc1c(-c2ccncc2)c(-c2ccc(F)cc2)nn1CCO [Example 104, 3-(4-fluorophenyl)-1-(2-hydroxyethyl)-5-(2-methoxyphenylacetylamino)-4-(4-pyridyl)pyrazole] | 200.6 to 204.2 °C
12 | COc1ccc(CC(=O)Nc2c(-c3ccncc3)c(-c3ccc(F)cc3)nn2C)cc1 [Example 64, 3-(4-Fluorophenyl)-5-(4-methoxyphenylacetylamino)-1-methyl-4-(4-pyridyl)pyrazole] | 172.3 to 176 °C
13 | Cn1nc(-c2ccc(F)cc2)c(-c2ccncc2)c1NC(=O)Cc1cc(C(F)(F)F)cc(C(F)(F)F)c1 [Example 45, 5-(3,5-Ditrifluoromethylphenylacetylamino)-3-(4-fluorophenyl)-1-methyl-4-(4-pyridyl)pyrazole] | 228.3 to 230.6 °C
14 | O=C(CCc1ccccc1)Nc1n[nH]c(-c2ccc(F)cc2)c1-c1ccncc1 [Example 2, 5-(4-Fluorophenyl)-3-(3-phenylpropionylamino)-4-(4-pyridyl)pyrazole] | 253.5 to 255.1 °C
15 | Cn1nc(-c2ccc(F)cc2)c(-c2ccncc2)c1NC(=O)Cc1c(F)cccc1Cl [Example 36, 5-(2-Chloro-6-fluorophenylacetylamino)-3-(4-fluorophenyl)-1-methyl-4-(4-pyridyl)pyrazole] | 216.9 to 224.6 °C
16 | Cn1nc(-c2ccc(F)cc2)c(-c2ccncc2)c1NC(=O)Cc1c(F)ccc([N+](=O)[O-])c1Cl [Example 83, 5-(2-chloro-6-fluoro-3-nitrophenylacetylamino)-3-(4-fluorophenyl)-1-methyl-4-(4-pyridyl)pyrazole] | 129.2 to 130.6 °C
17 | O=C(Cc1c(F)c(F)c(F)c(F)c1F)Nc1n[nH]c(-c2ccc(F)cc2)c1-c1ccncc1 [Example 31, 5-(4-Fluorophenyl)-3-(2,3,4,5,6-pentafluorophenylacetylamino)-4-(4-pyridyl)pyrazole] | ≥ 325 °C
18 | Cc1cc(C)cc(CC(=O)Nc2c(-c3ccncc3)c(-c3ccc(F)cc3)nn2C)c1 [Example 50, 5-(3,5-Dimethylphenylacetylamino)-3-(4-fluorophenyl)-1-methyl-4-(4-pyridyl)pyrazole] | 211.2 to 212.4 °C
19 | Cn1nc(-c2ccc(F)cc2)c(-c2ccncc2)c1NC(=O)Cc1ccc(F)cc1F [Example 40, 5-(2,4-Difluorophenylacetylamino)-3-(4-fluorophenyl)-1-methyl-4-(4-pyridyl)pyrazole] | 225.5 to 228.3 °C
20 | Cn1nc(-c2ccc(F)cc2)c(-c2ccncc2)c1NC(=O)Cc1cccc(N)c1 [Example 94, 5-(3-Aminophenylacetylamino)-3-(4-fluorophenyl)-1-methyl-4-(4-pyridyl)pyrazole] | 110.6 to 119 °C

Row | Structure (SMILES) | melting point
21 | Cn1nc(-c2ccc(F)cc2)c(-c2ccncc2)c1NC(=O)Cc1cc(F)ccc1F [Example 35, 5-(2,5-difluorophenylacetylamino)-3-(4-fluorophenyl)-1-methyl-4-(4-pyridyl)pyrazole] | 207 to 208 °C
22 | Cn1nc(-c2ccc(F)cc2)c(-c2ccncc2)c1NC(=O)Cc1ccccn1 [Example 76, 3-(4-Fluorophenyl)-1-methyl-4-(4-pyridyl)-5-(2-pyridylacetylamino)pyrazole] | 148.9 to 149.4 °C
23 | CN(C(=O)Cc1ccc(F)cc1)c1c(-c2ccncc2)c(-c2ccc(F)cc2)nn1C [Example 125, 3-(4-Fluorophenyl)-5-[N-(4-fluorophenylacetyl)-N-methylamino]-1-methyl-4-(4-pyridyl)pyrazole] | 124.1 to 125.6 °C
24 | O=C(Cc1ccsc1)Nc1n[nH]c(-c2ccc(F)cc2)c1-c1ccncc1 [Example 28, 5-(4-Fluorophenyl)-4-(4-pyridyl)-3-(3-thienylacetylamino)pyrazole] | 279.6 to 282.9 °C (dec.)
25 | COc1ccccc1CC(=O)N(C)c1c(-c2ccncc2)c(-c2ccc(F)cc2)nn1C [Example 131, 3-(4-Fluorophenyl)-5-[N-methyl-N-(2-methoxyphenylacetyl)amino]-1-methyl-4-(4-pyridyl)pyrazole] | 143.6 to 145.3 °C
26 | C[C@H](N)C(=O)Nc1n[nH]c(-c2ccc(F)cc2)c1-c1ccncc1.Cl | 210.2 to 211.5 °C
27 | Cn1nc(NC(=O)Cc2ccccc2Cl)c(-c2ccncc2)c1-c1ccc(F)cc1 [Example 118, 3-(2-Chlorophenylacetylamino)-5-(4-fluorophenyl)-1-methyl-4-(4-pyridyl)pyrazole] | 193.8 to 195.3 °C
28 | COc1ccc(CC(=O)Nc2c(-c3ccncc3)c(-c3ccc(F)cc3)nn2C)cc1OC [Example 44, 5-(3,4-Dimethoxyphenylacetylamino)-3-(4-fluorophenyl)-1-methyl-4-(4-pyridyl)pyrazole] | 174.4 to 180.3 °C
29 | COc1cccc(CC(=O)Nc2c(-c3ccncc3)c(-c3ccc(F)cc3)nn2C)c1OC [Example 53, 5-(2,3-Dimethoxyphenylacetylamino)-3-(4-fluorophenyl)-1-methyl-4-(4-pyridyl)pyrazole] | 185.4 to 193.4 °C
30 | CC(C)[C@H](NC(=O)OCc1ccccc1)C(=O)Nc1n[nH]c(-c2ccc(F)cc2)c1-c1ccncc1 [Example 85, 3-(N′-carbobenzoxy-L-valylamino)-5-(4-fluorophenyl)-4-(4-pyridyl)pyrazole] | 231.1 °C
31 | Cn1nc(-c2ccc(F)cc2)c(-c2ccncc2)c1NC(=O)Cc1ccccc1F [Example 60, 3-(4-Fluorophenyl)-5-(2-fluorophenylacetylamino)-1-methyl-4-(4-pyridyl)pyrazole] | 196.8 to 198.1 °C
32 | Cn1nc(-c2ccc(F)cc2)c(-c2ccncc2)c1NC(=O)Cc1ccc(OCc2ccccc2)cc1 [Example 70, 5-(4-Benzyloxyphenylacetylamino)-3-(4-fluorophenyl)-1-methyl-4-(4-pyridyl)pyrazole] | 147.8 to 150.1 °C
33 | Cn1nc(-c2ccc(F)cc2)c(-c2ccncc2)c1NC(=O)Cc1c(Cl)cccc1Cl [Example 38, 5-(2,6-Dichlorophenylacetylamino)-3-(4-fluorophenyl)-1-methyl-4-(4-pyridyl)pyrazole] | 252.5 to 256.7 °C
34 | O=C(Cc1ccccc1Cl)Nc1n[nH]c(-c2ccc(F)cc2)c1-c1ccncc1 [Example 24, 3-(2-chlorophenylacetylamino)-5-(4-fluorophenyl)-4-(4-pyridyl)pyrazole] | 238.8 to 240.1 °C
35 | Cn1nc(-c2ccc(F)cc2)c(-c2ccncc2)c1NC(=O)Cc1cccc(C(F)(F)F)c1 [Example 72, 3-(4-Fluorophenyl)-1-methyl-4-(4-pyridyl)-5-(3-trifluoromethylphenylacetylamino)pyrazole] | 193.4 to 195.8 °C
36 | O=C(Cc1ccccc1)Nc1n[nH]c(-c2ccc(F)cc2)c1-c1ccnc2ccccc12 [Example 10, 5-(4-Fluorophenyl)-4-(4-quinolyl)-3-phenylacetylaminopyrazole] | 273.4 to 275.3 °C
37 | Cn1nc(-c2ccc(F)cc2)c(-c2ccncc2)c1NC(=O)Cc1cccc(F)c1 [Example 61, 3-(4-Fluorophenyl)-5-(3-fluorophenylacetylamino)-1-methyl-4-(4-pyridyl)pyrazole] | 196.9 to 199.1 °C
38 | O=C(CO)Nc1n[nH]c(-c2ccc(F)cc2)c1-c1ccncc1 [Example 14, 5-(4-Fluorophenyl)-3-hydroxyacetylamino-4-(4-pyridyl)pyrazole] | 264 to 266 °C
39 | Cn1nc(-c2ccc(F)cc2)c(-c2ccncc2)c1NC(=O)Cc1ccccc1C(F)(F)F [Example 68, 3-(4-Fluorophenyl)-1-methyl-4-(4-pyridyl)-5-(2-trifluoromethylphenylacetylamino)pyrazole] | 242.7 to 244.5 °C
40 | O=C(Nc1n[nH]c(-c2ccc(F)cc2)c1-c1ccncc1)C(F)(F)F [Example 22, 5-(4-fluorophenyl)-4-(4-pyridyl)-3-trifluoroacetylaminopyrazole] | 260.1 to 265.2 °C
